From publication PMC7731314, “Tropinone-Derived Alkaloids as Potent Anticancer Agents: Synthesis, Tyrosinase Inhibition, Mechanism of Action, DFT Calculation, and Molecular Docking Studies” (International Journal of Molecular Sciences, 2020)
Read-outs that look alike come from different tables or passages of the source.

What was measured:
[1] = system: human multiple myeloma (RPMI 8226) cell line; assay: MTT cell proliferation assay, RPMI 8226; assay type: cell-based; settings: antiproliferative, 96 h, read-out: IC50 ± SD RPMI 8226
Procedure: (§1) The influence of the tested compounds on the proliferation of RPMI 8226 and A549 cells was estimated with the MTT assay as described previously. Briefly, 1 × 10^4 cells/mL (RPMI 8226) or 0.2 × 10^4 (A549) cells per well were seeded into 96-well plates and cultured (in growth medium containing 10% FBS) with different concentrations of each compound ranging from 3.125 to 100 μM. The control cells were treated with the vehicle DMSO (0.1%).

[2] = system: human lung carcinoma (A549) cell line; assay: MTT cell proliferation assay, A549; assay type: cell-based; settings: antiproliferative, 96 h, read-out: IC50 ± SD A549
Procedure: as §1

[3] = target: mushroom tyrosinase (Agaricus bisporus, UniProt C7FF04); assay: Kinetic analysis of the inhibition of tyrosinase (Lineweaver-Burk); assay type: biochemical; settings: tyrosinase-catalyzed oxidation of L-DOPA
Sequence of mushroom tyrosinase (C7FF04 1-392): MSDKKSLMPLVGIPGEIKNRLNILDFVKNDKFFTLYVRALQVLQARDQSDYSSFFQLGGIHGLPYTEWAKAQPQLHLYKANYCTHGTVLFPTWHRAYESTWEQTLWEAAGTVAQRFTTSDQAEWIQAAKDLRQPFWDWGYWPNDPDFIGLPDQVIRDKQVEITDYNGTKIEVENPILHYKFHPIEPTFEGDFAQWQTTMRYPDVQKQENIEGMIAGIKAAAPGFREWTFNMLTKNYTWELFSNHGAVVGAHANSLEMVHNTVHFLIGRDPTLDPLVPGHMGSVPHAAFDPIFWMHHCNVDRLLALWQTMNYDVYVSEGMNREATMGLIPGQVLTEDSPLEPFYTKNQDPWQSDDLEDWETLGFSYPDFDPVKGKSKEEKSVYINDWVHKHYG
Procedure: To understand the mechanism of mushroom tyrosinase inhibition by new compounds 3a–3h, enzyme inhibition kinetic studies were performed. The mechanism of tyrosinase inhibition was determined using Lineweaver–Burk plot, which is a useful graphical method for analysis of the Michaelis–Menten equations used to determine the inhibition constant […].
A series of experiments were performed to determine the inhibition kinetics of compounds by following the already reported method. The inhibitor concentrations for compounds were 50 and 100 µM. Substrate L-DOPA concentration was between 100 and 250 µM in all kinetic studies. Maximal initial velocity was determined from the initial linear portion of absorbance up to ten minutes after addition of enzyme. The inhibition type of the enzyme, Michaelis constant (KM) and maximal velocity (Vmax) were determined by Lineweaver–Burk plots of inverse of velocities (1/V) versus inverse of substrate concentration 1/[L-DOPA] mM^−1.

[4] = system: human breast adenocarcinoma (MDA-MB-231) cell line; assay: MTT cell proliferation assay, MDA-MB-231; assay type: cell-based; settings: read-out: IC50 ± SD MDA-MB-231
Text: (§2) The influence of the tested compounds on the proliferation of melanoma B16F10 and breast MDA-MB-231 cells was estimated with the MTT assay as described previously. The cells counted using an automated cell counter (Countess® II FL, Invitrogen by Thermo Fisher Scientific Inc., Waltham, MA USA) and plated in 96-well plates (Nunc Edge 2F, Thermo Fisher Scientific Inc.) at a density of 0.1 × 10^4 and 0.2 × 10^4 per well, respectively. A total of twenty-four hours later, drugs were applied with final concentration: 5, 0.5, 0.05, and 0.005 μg/mL, and after an additional seventy-two hours MTT staining was performed as follows: twenty microliters of 5 mg/mL MTT solution and was added to each well of 96-well plate incubated for 2 h. Subsequently, the medium was removed and crystals of formazan were solubilized in pure isopropanol. Absorbance readout was conducted immediately using plate reader Multiskan Spectrum at 570 nm (Thermo Electron Corporation, Waltham, MA, USA). The background optical density was measured in the wells filled with culture medium, without the cells. The biological evaluation was performed as three independent experiments. The IC50 values were calculated using ED50plus v 1.0 freeware software and the mean response and standard deviation were calculated using Excel software. All of the chemicals were obtained from Sigma-Aldrich.

[5] = system: mouse skin melanoma (B16-F10) cell line; assay: MTT cell proliferation assay, B16-F10; assay type: cell-based; settings: read-out: IC50 ± SD B16-F10
Text: as §2

[6] = in vitro
Procedure: (§3) The human normal skin fibroblasts, i.e., the HSF cell line, were a laboratory strain obtained with the outgrowth technique from skin explants from young volunteers (with subjects’ written informed consent). […] The CCD18-Co cells were grown in Eagle Medium (Sigma-Aldrich, St. Louis, MO, USA) supplemented with 2 mM L-glutamine (Sigma-Aldrich) and 1mM sodium pyruvate (Sigma-Aldrich, St. Louis, MO, USA), 10% FBS, (without antibiotics). HSF were cultured in a 1:1 mixture of Dulbecco’s modified Eagle Medium and Eagle Medium (Sigma-Aldrich) containing 10% FBS, 100 units/mL of penicillin, and 100 mg/mL of streptomycin. […] All cell lines were cultured in a humidified 5% CO2 atmosphere at a temperature of 37 °C. A stock solution of each tested compound was made in dimethylsulfoxide (DMSO; Sigma-Aldrich) and stored at 4 °C until use. The drug was diluted in an appropriate culture medium immediately before use.
(§4) The influence of the tested compounds on normal cell viability was estimated with the MTT assay. The CCD-18Co and HSF cells were seeded in 96-well microplates at a density of 1 × 10^5 cells/mL in complete growth medium. The next day, the medium was replaced with a fresh one containing 2% FBS (growth restriction) and the cells were exposed to each tested compound (3.156–100 µM) to study the acute toxicity in vitro. After 24-h incubation, the medium was removed and the cells were incubated for 3 h with an MTT solution; next, formazan crystals were solubilized overnight by adding SDS buffer and absorbance was determined at a wavelength of 570 nm using an EL800 Microplate Reader (BioTek Instruments, Winooski, VT, USA). The absorbance of the control wells was taken as 100% and the cell viability was expressed as a percentage of the control. CC50 values, defined as concentrations of the compounds necessary to reduce cell viability by 50%, were calculated from nonlinear regression (log(inhibitor) vs. normalized response-variable slope) using GraphPad Prism 5.0.

[7] = in vitro; settings: human
Procedure: as §3, §4

[8] = system: human normal colon fibroblasts (CCD-18Co)
Procedure: as §3, §4

[9] = system: human normal skin fibroblasts (HSF)
Procedure: as §3, §4

[10] = MDA-MB-231, antiproliferative, MTT, 72 h
[11] = B16-F10, antiproliferative, MTT, 72 h

SMILES | IC50 [1] | IC50 [2] | melting point | Inhibitory Mechanism [3] | IC50 [4, 10] | IC50 [5, 11] | CC50 at 24 h [6] | CC50 at 24 h [7] | CC50 ± SD CCD-18Co [8] | CC50 ± SD HSF [9] | IC50 ([4]; MDA-MB-231, 72 h) | IC50 ([5]; B16-F10, 72 h)
CN1C2CCC1CC(=NNc1nc(-c3ccc([N+](=O)[O-])cc3)cs1)C2 [Compound 3d, 4-(4-Nitrophenyl)-2-(2-(8-methyl-8-azabicyclo[3.2.1]octan-3-ylidene)hydrazinyl)thiazole] | 17.9 ± 1.78 µM | 31 ± 4.62 µM | 99 to 101 °C | mixed | 2440 ± 140 nM | 1910 ± 40 nM | – | – | – | – | – | –
CN1C2CCC1CC(=NNc1nc(-c3cc4ccccc4oc3=O)cs1)C2 [Compound 3g, 3-[2-[2-(8-Methyl-8-azabicyclo[3.2.1]oct-3-ylidene)hydrazinyl]-1,3-thiazol-4-yl]-2H-chromen-2-one] | 23.2 ± 4.52 µM | 29.3 ± 3.98 µM | 110 to 113 °C | mixed | 2830 ± 60 nM | 3000 ± 260 nM | 35.3 ± 5.52 µM | 42.6 ± 5.89 µM | – | – | – | –
CN1C2CCC1CC(=NNc1nc(-c3ccc(N)cc3)cs1)C2 [Compound 3e, 4-[2-[2-(8-Methyl-8-azabicyclo[3.2.1]oct-3-ylidene)hydrazinyl]-1,3-thiazol-4-yl]aniline] | 67 ± 7.14 µM | 263 ± 105 µM | 85 to 87 °C | mixed | 2810 ± 120 nM | 2680 ± 400 nM | > 100 µM | > 100 µM | no toxicity | no toxicity | – | –
COc1ccc(-c2csc(NN=C3CC4CCC(C3)N4C)n2)cc1 [Compound 3b, 4-(4-Methoxyphenyl)-2-(2-(8-methyl-8-azabicyclo[3.2.1]octan-3-ylidene)hydrazinyl)thiazole] | 42.2 ± 4.55 µM | 133 ± 25.1 µM | 91 to 93 °C | mixed | 2530 ± 70 nM | 2200 ± 40 nM | – | – | – | – | – | –
CN1C2CCC1CC(=NNc1nc(-c3ccc(C#N)cc3)cs1)C2 [Compound 3c, 4-[2-[2-(8-Methyl-8-azabicyclo[3.2.1]oct-3-ylidene)hydrazinyl]-1,3-thiazol-4-yl]benzonitrile] | 31.7 ± 2.77 µM | 74.9 ± 7.65 µM | 90 to 92 °C | mixed | 2700 ± 140 nM | 1520 ± 130 nM | – | – | – | – | – | –
CN1C2CCC1CC(=NNc1nc(-c3ccc(NS(C)(=O)=O)cc3)cs1)C2 [Compound 3f, N-(4-[2-[2-(8-Methyl-8-azabicyclo[3.2.1]oct-3-ylidene)hydrazinyl]-1,3-thiazol-4-yl]phenyl)methane-sulfonamide] | 107 ± 7.22 µM | 117 ± 22.8 µM | 98 to 100 °C | mixed | 2480 ± 80 nM | 2140 ± 230 nM | 98.7 ± 4.16 µM | > 100 µM | no toxicity | weak | – | –
O=C(O)CCCc1ccc(N(CCCl)CCCl)cc1 [Chlorambucil, reference compound] | – | – | – | – | – | – | – | – | – | – | 4710 ± 500 nM | 2920 ± 100 nM
CC(=O)Nc1ccc(-c2csc(NN=C3CC4CCC(C3)N4C)n2)cc1 [Compound 3h, N-(4-[2-[2-(8-Methyl-8-azabicyclo[3.2.1]oct-3-ylidene)hydrazinyl]-1,3-thiazol-4-yl]phenyl)acetamide] | 108 ± 4.8 µM | 189 ± 33 µM | 97 to 99 °C | mixed | 2900 ± 250 nM | 3030 ± 180 nM | > 100 µM | > 100 µM | no toxicity | no toxicity | – | –
